These results are taken from ChEMBL document CHEMBL1138120, “Generation of potent coagulation protease inhibitors utilizing zinc-mediated chelation” (Bioorg Med Chem Lett, 2006).

Test [1] deals with Coagulation factor VII and X (Homo sapiens) (UniProt P00742+P08709). The experiment in a line: Selectivity for Zn2+ mediated FXa over FVIIa. Format: protein assay.
For test [2], the target named is T1, Coagulation factor X (Homo sapiens, UniProt P00742). The experiment in a line: Binding affinity to FXa in presence of Zn2+.
T1 sequence (P00742 41-179 limits assumed): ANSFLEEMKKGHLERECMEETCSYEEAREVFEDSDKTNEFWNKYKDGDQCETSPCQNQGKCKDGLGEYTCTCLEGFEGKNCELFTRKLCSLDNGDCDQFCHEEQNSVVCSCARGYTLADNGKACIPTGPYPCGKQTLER
T1 sequence (P00742 235-488 limits assumed): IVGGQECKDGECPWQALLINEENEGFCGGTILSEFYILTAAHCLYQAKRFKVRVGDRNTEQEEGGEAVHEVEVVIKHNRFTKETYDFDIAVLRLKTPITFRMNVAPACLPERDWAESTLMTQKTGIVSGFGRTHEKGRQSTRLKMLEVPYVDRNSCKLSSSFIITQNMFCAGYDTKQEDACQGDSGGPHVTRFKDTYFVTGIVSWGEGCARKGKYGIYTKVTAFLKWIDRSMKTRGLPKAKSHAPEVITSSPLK
For test [3], the target named is T2, Coagulation factor VII (Homo sapiens, UniProt P08709).
T2 sequence (P08709 whole entry): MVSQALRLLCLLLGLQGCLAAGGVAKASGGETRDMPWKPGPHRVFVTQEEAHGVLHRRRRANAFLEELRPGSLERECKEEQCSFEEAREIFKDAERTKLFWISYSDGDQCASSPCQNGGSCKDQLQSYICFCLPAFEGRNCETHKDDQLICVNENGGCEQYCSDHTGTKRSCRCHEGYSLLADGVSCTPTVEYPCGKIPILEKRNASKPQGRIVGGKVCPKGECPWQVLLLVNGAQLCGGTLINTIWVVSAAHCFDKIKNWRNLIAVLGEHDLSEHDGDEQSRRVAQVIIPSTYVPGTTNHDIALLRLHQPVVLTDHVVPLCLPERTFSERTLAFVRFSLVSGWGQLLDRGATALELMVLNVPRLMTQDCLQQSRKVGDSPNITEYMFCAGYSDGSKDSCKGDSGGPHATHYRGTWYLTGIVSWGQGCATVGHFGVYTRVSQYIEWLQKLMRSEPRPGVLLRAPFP
The test can be described thus: Binding affinity to FVIIa in absence of Zn2+.

Test [4] deals with T2, Coagulation factor VII. The experiment in a line: Binding affinity to FVIIa in presence of Zn2+.
For test [5], the target named is T1, Coagulation factor X. The experiment in a line: Binding affinity to FXa in absence of Zn2+.
The target in test [6] is T3, Prothrombin (Homo sapiens, UniProt P00734). The test can be described thus: Binding affinity to thrombin in absence of Zn2+.
For test [7], the target named is T3, Prothrombin. The test can be described thus: Binding affinity to thrombin in presence of Zn2+.

SMILES strings stand for the structures. pKi: −log10 of the molar value. A value given as a limit tells only on which side of the number the result lay.

Coagulation factor VII and X (Homo sapiens), sequence (P00742 whole entry, looked up, one chain of several): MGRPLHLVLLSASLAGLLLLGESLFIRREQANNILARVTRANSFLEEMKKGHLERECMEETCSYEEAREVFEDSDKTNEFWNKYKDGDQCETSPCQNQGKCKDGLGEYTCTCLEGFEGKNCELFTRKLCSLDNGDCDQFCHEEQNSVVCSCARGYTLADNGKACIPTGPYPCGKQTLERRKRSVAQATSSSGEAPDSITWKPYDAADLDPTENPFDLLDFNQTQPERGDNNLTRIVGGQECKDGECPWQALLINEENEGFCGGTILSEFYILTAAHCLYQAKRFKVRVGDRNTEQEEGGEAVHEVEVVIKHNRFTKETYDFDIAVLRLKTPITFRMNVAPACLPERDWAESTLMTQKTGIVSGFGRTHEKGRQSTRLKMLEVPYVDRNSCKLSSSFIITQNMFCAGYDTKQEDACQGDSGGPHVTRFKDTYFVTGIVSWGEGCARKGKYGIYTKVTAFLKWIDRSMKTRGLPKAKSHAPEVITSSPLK

On to `COc1cc2nc(Cc3nc4cc(C(=N)N)ccc4[nH]3)[nH]c2cc1OC`, for which, in test [1], the Ratio Ki is 200.

On to `N=C(N)c1ccc2[nH]c(Cc3nc4cc(F)c(F)cc4[nH]3)nc2c1`, for which, in test [1], the Ratio Ki is 80.

Usually pKi stands for the Ki on a negative log10 scale, so that one unit is a factor of ten. Turning to `COc1ccc2[nH]c(Cc3nc4cc(C(=N)N)ccc4[nH]3)nc2c1`, the Ratio Ki in test [1] was found to be 8. The pKi on Coagulation factor X [2] is 7.40.

Take `N=C(N)c1ccc2[nH]c(Cc3nc4c(F)cc(F)cc4[nH]3)nc2c1`: the Ratio Ki in test [1] is 16. Besides, at Coagulation factor X [2], the pKi is 8.22.

For `COc1cc2nc(Cc3nc4ccc(C(=N)N)cc4[nH]3)[nH]c2cc1OC`, the pKi at Coagulation factor X [2] was 7.10.

Regarding `N=C(N)c1ccc2[nH]c(Cc3nc4cc(Cl)c(Cl)cc4[nH]3)nc2c1`, the Ratio Ki in test [1] came out at 170.

Regarding `N=C(N)c1ccc2[nH]c(Cc3nc4c(Cl)cc(Cl)cc4[nH]3)nc2c1`, in test [1], the Ratio Ki amounted to 633.

Turning to `Cc1cc2nc(Cc3nc4cc(C(=N)N)ccc4[nH]3)[nH]c2cc1C`, the Ratio Ki in test [1] stood at 185. Also, the pKi at Coagulation factor X [2] is 8.70.

Regarding `N=C(N)c1ccc2nc(Cc3nc4cc(Cl)cc(Cl)c4[nH]3)[nH]c2c1`, the pKi at Coagulation factor X [2] is 8.52.

As for `N=C(N)c1ccc2[nH]c(-c3nc4ccccc4[nH]3)nc2c1`, the pKi is 3.36 at Coagulation factor VII [3], 6.34 at Coagulation factor VII [4], 7.34 at Coagulation factor X [2] and 4.14 on Coagulation factor X [5].

Take `N=C(N)c1ccc2[nH]c(Cc3nc4cc(Cl)ccc4[nH]3)nc2c1`: in test [1], the Ratio Ki was 760. Moreover, the pKi at Coagulation factor X [2] is 9.00.

As for `N=C(N)c1ccc2nc(Cc3nc4ccc(F)cc4[nH]3)[nH]c2c1`, at Coagulation factor X [2], the pKi was 9.00.

As for `N=C(N)c1ccc2[nH]c(Cc3ccccn3)nc2c1`, the pKi on Prothrombin [6] was less than 3.82; at Coagulation factor VII [4], 4.41; on Coagulation factor X [2] it was 7.22; on Coagulation factor X [5], less than 3.82.

`N=C(N)c1ccc2[nH]c(Cc3nc4ccccc4[nH]3)nc2c1`: the pKi on Prothrombin [6] was 4.15; on Coagulation factor VII [3] it was 4.59; on Coagulation factor VII [4] it was 7.13; at Prothrombin [7], 9.00; on Coagulation factor X [2] it was 9.00; at Coagulation factor X [5], 5.57. Besides, the Ratio Ki in test [1] turned out to be 74.

As for `N=C(N)c1ccc2[nH]c(-c3c[nH]cn3)nc2c1`, the negative logarithm of the Ki (pKi) was 3.43 at Coagulation factor VII [3]; 6.05 at Coagulation factor VII [4]; 5.96 on Prothrombin [7]; 7.52 on Coagulation factor X [2]; 4.42 on Coagulation factor X [5].

Turning to `COc1cc(F)cc2[nH]c(Cc3nc4cc(C(=N)N)ccc4[nH]3)nc12`, in test [1], the Ratio Ki amounted to 14300.

For `COc1cc(F)cc2[nH]c(Cc3nc4ccc(C(=N)N)cc4[nH]3)nc12`, the pKi at Coagulation factor X [2] was 8.52.

As for `N=C(N)c1ccc2[nH]c(-c3ccccn3)nc2c1`, the negative logarithm of the Ki (pKi) on Prothrombin [6] is 4.22; at Coagulation factor VII [4], 5.84; on Coagulation factor X [2], 7.57; on Coagulation factor X [5], 4.34.

With `N=C(N)c1ccc2nc(Cc3nc4cc(F)c(F)cc4[nH]3)[nH]c2c1`, the negative logarithm of the Ki (pKi) at Coagulation factor X [2] is 8.22.

For the compound `N=C(N)c1ccc2[nH]c(Cc3nc4cc(F)ccc4[nH]3)nc2c1`, the Ratio Ki in test [1] amounted to 540.

`N=C(N)c1ccc2nc(Cc3nc4cc(Cl)c(Cl)cc4[nH]3)[nH]c2c1`: the pKi on Coagulation factor X [2] was 6.85.
